Measured values taken from patent US10364245B2 (CHIESI FARMACEUTICI S.p.A., priority 2017, dated 2019).
Counter-ions that a name gives are not always drawn.

Legend:
[1] = target: T1, p38 alpha (Homo sapiens, UniProt Q16539); experiment: P38 alpha enzyme inhibition assay (Alphascreen kinase activity assay); assay type: biochemical; conditions: 100 pM p38 alpha, 2 hours preincubation at 25° C., 250 μM ATP, ATF-2 fusion protein; read-out: p38α inhibition
T1 construct: purchased Invitrogen PV3304
Summary of the method: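 Phosphorylation of ATF-2 fusion protein (0.3 μg/ml) read by AlphaScreen with anti-phospho-ATF2 antibody after 1 h kinase reaction at 25 °C, initiated by 250 μM ATP. Compounds first incubated 2 h at 25 °C with 100 pM p38 alpha in pH 7.5 HEPES buffer, 1% DMSO. IC50 derived from concentration-response data.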

[2] = test system: Peripheral Blood Mononuclear Cells (PBMCs), TNFα release; experiment: LPS-stimulated PBMC TNFα release assay; assay type: cell-based; conditions: human PBMC, LPS (10 ng/ml), 18 h, compound 1 h before LPS; read-out: LPS-stimulated PBMC TNFα release inhibition
Summary of the method: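 TNFα in cell-free supernatant, read on MSD plates, gave % inhibition curves and IC50 (≥3 separate experiments). Healthy-donor PBMCs had 1 h compound exposure at 37 °C in 1% FBS medium, then 18 h stimulation with 10 ng/ml LPS, after a 3 h serum-free rest.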

T1 sequence (Q16539 whole entry, the tested form may be a part): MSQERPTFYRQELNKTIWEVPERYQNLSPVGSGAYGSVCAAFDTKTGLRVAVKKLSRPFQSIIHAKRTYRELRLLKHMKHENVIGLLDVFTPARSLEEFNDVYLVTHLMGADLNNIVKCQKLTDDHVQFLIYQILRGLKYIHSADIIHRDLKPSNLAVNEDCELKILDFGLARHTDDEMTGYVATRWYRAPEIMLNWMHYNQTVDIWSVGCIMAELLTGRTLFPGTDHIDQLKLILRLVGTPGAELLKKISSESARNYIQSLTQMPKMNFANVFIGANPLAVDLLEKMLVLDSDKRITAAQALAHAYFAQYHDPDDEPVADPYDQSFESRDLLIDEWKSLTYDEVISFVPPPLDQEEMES

SMILES | IC50 [1] [nM] | IC50 [2] [nM]
CC(C)N1CCC[C@H]1c1nnc2ccc(O[C@@H]3CC[C@H](NC(=O)Nc4cc(C(C)(C)C)ncn4)c4ccccc43)cn12 [Example 47, 1-(6-(tert-Butyl)pyrimidin-4-yl)-3-((1S,4R)-4-((3-((S)-1-isopropylpyrrolidin-2-yl)-[1,2,4]triazolo[4,3-a]pyridine-6-yl)oxy)-1,2,3,4-tetrahydronaphthalene-1-yl)urea Hydrochloride] | < 1 | > 5
Cc1ncc(C(C)(C)C)cc1NC(=O)N[C@H]1CC[C@@H](Oc2ccc3nnc([C@]4(C)CCCN4C)n3c2)c2ccccc21 [Example 50, 1-(5-(tert-Butyl)-2-methylpyridin-3-yl)-3-((1S,4R)-4-((3-((S)-1,2-dimethylpyrrolidin-2-yl)-[1,2,4]triazolo[4,3-a]pyridin-6-yl)oxy)-1,2,3,4-tetrahydronaphthalen-1-yl)urea] | < 1 | < 1
COc1ncc(C(C)(C)C)cc1NC(=O)N[C@H]1CC[C@@H](Oc2ccc3nnc([C@]4(C)CCCN4C)n3c2)c2ccccc21 [Example 52, 1-(5-(tert-Butyl)-2-methoxypyridin-3-yl)-3-((1S,4R)-4-((3-((S)-1,2-dimethylpyrrolidin-2-yl)-[1,2,4]triazolo[4,3-a]pyridin-6-yl)oxy)-1,2,3,4-tetrahydronaphthalen-1-yl)urea] | 1 to 10 | < 1
CNC(=O)c1cc(NC(=O)N[C@H]2CC[C@@H](Oc3ccc4nnc([C@]5(C)CCCN5C)n4c3)c3ccccc32)cc(C(C)(C)C)n1 [Example 53, 6-(tert-Butyl)-4-(3-((1S,4R)-4-((3-((S)-1,2-dimethylpyrrolidin-2-yl)-[1,2,4]triazolo[4,3-a]pyridin-6-yl)oxy)-1,2,3,4-tetrahydronaphthalen-1-yl)ureido)-N-methylpicolinamide] | 1 to 10 | 1 to 5
COCC(C)(C)c1nnc2ccc(O[C@@H]3CC[C@H](NC(=O)Nc4cc(C(C)(C)C)nc(C(=O)NCCN(C)C)n4)c4ccccc43)cn12 [Example 54, 4-(tert-Butyl)-N-(2-(dimethylamino)ethyl)-6-(3-((1S,4R)-4-((3-(methoxy-2-methylpropan-2-yl)-[1,2,4]triazolo[4,3-a]pyridin-6-yl)oxy)-1,2,3,4-tetrahydronaphthalen-1-yl)ureido)pyrimidine-2-carboxamide] | < 1 | 1 to 5
CN(C)CCNC(=O)c1nc(NC(=O)N[C@H]2CC[C@@H](Oc3ccc4nnc(C5(C)COC5)n4c3)c3ccccc32)cc(C(C)(C)C)n1 [Example 55, 4-(tert-Butyl)-N-(2-(dimethylamino)ethyl)-6-(3-((1S,4R)-4-((3-(3-methyloxetan-3-yl)-[1,2,4]triazolo[4,3-a]pyridin-6-yl)oxy)-1,2,3,4-tetrahydronaphthalen-1-yl)ureido)pyrimidine-2-carboxamide] | 1 to 10 | > 5
CN1CCC[C@@]1(C)c1nnc2ccc(O[C@@H]3CC[C@H](NC(=O)Nc4cc(C(=O)NCCO)nc(C(C)(C)C)c4)c4ccccc43)cn12 [Example 61, 6-(tert-Butyl)-4-(3-((1S,4R)-4-((3-((S)-1,2-dimethylpyrrolidin-2-yl)-[1,2,4]triazolo[4,3-a]pyridin-6-yl)oxy)-1,2,3,4-tetrahydronaphthalen-1-yl)ureido)-N-(2-hydroxyethyl)picolinamide] | 1 to 10 | 1 to 5
CN(C)CCNC(=O)c1cc(NC(=O)N[C@H]2CC[C@@H](Oc3ccc4nnc([C@]5(C)CCCN5C)n4c3)c3ccccc32)cc(C(C)(C)C)n1 [Example 62, 6-(tert-Butyl)-N-(2-(dimethylamino)ethyl)-4-(3-((1S,4R)-4-((3-((S)-1,2-dimethylpyrrolidin-2-yl)-[1,2,4]triazolo[4,3-a]pyridin-6-yl)oxy)-1,2,3,4-tetrahydronaphthalen-1-yl)ureido)picolinamide] | < 1 | > 5
COCCN(C)CCNC(=O)c1nc(NC(=O)N[C@H]2CC[C@@H](Oc3ccc4nnc(C(C)(C)C)n4c3)c3ccccc32)cc(C(C)(C)C)n1 [Example 67, 4-(tert-butyl)-6-(3-((1S,4R)-4-((3-(tert-butyl)-[1,2,4]triazolo[4,3-a]pyridin-6-yl)oxy)-1,2,3,4-tetrahydronaphthalen-1-yl)ureido)-N-(2-((2-methoxyethyl)(methyl)amino)ethyl)pyrimidine-2-carboxamide] | 1 to 10 | 1 to 5

More lines, main results first:

IC50 [1] [nM] | SMILES | IC50 [2] [nM]
< 1 | CN1CCC[C@H]1c1nnc2ccc(O[C@@H]3CC[C@H](NC(=O)Nc4cc(C(C)(C)C)ncn4)c4ccccc43)cn12 [Example 46, 1-(6-(tert-Butyl)pyrimidin-4-yl)-3-((1S,4R)-4-((3-((S)-1-methylpyrrolidin-2-yl)-[1,2,4]triazolo[4,3-a]pyridine-6-yl)oxy)-1,2,3,4-tetrahydronaphthalene-1-yl)urea Hydrochloride] | 1 to 5
1 to 10 | CSc1nc(NC(=O)N[C@H]2CC[C@@H](Oc3ccc4nnc([C@]5(C)CCCN5C)n4c3)c3ccccc32)cc(C(C)(C)C)n1 [Example 49, 1-(6-(tert-Butyl)-2-(methylthio)pyrimidin-4-yl)-3-((1S,4R)-4-((3-((S)-1,2-dimethylpyrrolidin-2-yl)-[1,2,4]triazolo[4,3-a]pyridine-6-yl)oxy)-1,2,3,4-tetrahydronaphthalen-1-yl)urea] | > 5
< 1 | CN1CCC[C@@]1(C)c1nnc2ccc(O[C@@H]3CC[C@H](NC(=O)Nc4cc(CO)nc(C(C)(C)C)c4)c4ccccc43)cn12 [Example 51, 1-(2-(tert-Butyl)-6-(hydroxymethyl)pyridin-4-yl)-3-((1S,4R)-4-((3-((S)-1,2-dimethylpyrrolidin-2-yl)-[1,2,4]triazolo[4,3-a]pyridin-6-yl)oxy)-1,2,3,4-tetrahydronaphthalen-1-yl)urea] | < 1
1 to 10 | CO[C@@H](C)c1nnc2ccc(O[C@@H]3CC[C@H](NC(=O)Nc4cc(C(C)(C)C)nc(C(=O)NCCN(C)C)n4)c4ccccc43)cn12 [Example 56, 4-(tert-Butyl)-N-(2-(dimethylamino)ethyl)-6-(3-((1S,4R)-4-((3-((S)-1-methoxyethyl)-[1,2,4]triazolo[4,3-a]pyridin-6-yl)oxy)-1,2,3,4-tetrahydronaphthalene-1-yl)ureido)pyrimidin-2-carboxamide] | > 5
1 to 10 | COC(C)(C)c1nnc2ccc(O[C@@H]3CC[C@H](NC(=O)Nc4cc(COCCN5CCOCC5)nc(C(C)(C)C)c4)c4ccccc43)cn12 [Example 57] | > 5
< 1 | CN(C)CCNC(=O)c1cc(C(C)(C)C)cc(NC(=O)N[C@H]2CC[C@@H](Oc3ccc4nnc(C(C)(C)C)n4c3)c3ccccc32)n1 [Example 58, 4-(tert-Butyl)-6-(3-((1S,4R)-4-((3-(tert-butyl)-[1,2,4]triazolo[4,3-a]pyridin-6-yl)oxy)-1,2,3,4-tetrahydronaphthalen-1-yl)ureido)-N-(2-(dimethylamino)ethyl)picolinamide] | 1 to 5
1 to 10 | CN(C)CCNC(=O)c1nc(NC(=O)N[C@H]2CC[C@@H](Oc3ccc4nnc(CC(C)(C)C)n4c3)c3ccccc32)cc(C(C)(C)C)n1 [Example 59, 4-(tert-Butyl)-N-(2-(dimethylamino)ethyl)-6-(3-((1S,4R)-4-((3-neopentyl-[1,2,4]triazolo[4,3-a]pyridin-6-yl)oxy)-1,2,3,4-tetrahydronaphthalen-1-yl)ureido)pyrimidine-2-carboxamide] | > 5
< 1 | CC(C)Cc1nnc2ccc(O[C@@H]3CC[C@H](NC(=O)Nc4cc(C(C)(C)C)nc(C(=O)NCCO)n4)c4ccccc43)cn12 [Example 60, 4-(tert-Butyl)-N-(2-hydroxyethyl)-6-(3-((1S,4R)-4-((3-isobutyl-[1,2,4]triazolo[4,3-a]pyridin-6-yl)oxy)-1,2,3,4-tetrahydronaphthalen-1-yl)ureido)pyrimidine-2-carboxamide] | 1 to 5
< 1 | CC(C)(C)c1cc(NC(=O)N[C@H]2CC[C@@H](Oc3ccc4nnc(C5CCCC5)n4c3)c3ccccc32)nc(C(=O)NCCO)n1 [Example 64] | > 5
< 1 | CC(C)c1nnc2ccc(O[C@@H]3CC[C@H](NC(=O)Nc4cc(C(C)(C)C)nc(C(=O)NCCO)n4)c4ccccc43)cn12 [Example 65, 4-(tert-butyl)-N-(2-hydroxyethyl)-6-(3-((1S,4R)-4-((3-isopropyl-[1,2,4]triazolo[4,3-a]pyridin-6-yl)oxy)-1,2,3,4-tetrahydronaphthalen-1-yl)ureido)pyrimidine-2-carboxamide] | > 5
1 to 10 | CC(C)c1nnc2ccc(O[C@@H]3CC[C@H](NC(=O)Nc4cc(C(C)(C)C)nc(C(=O)NCCN5CCOCC5)n4)c4ccccc43)cn12 [Example 66, 4-(tert-butyl)-6-(3-((1S,4R)-4-((3-isopropyl-[1,2,4]triazolo[4,3-a]pyridin-6-yl)oxy)-1,2,3,4-tetrahydronaphthalen-1-yl)ureido)-N-(2-morpholinoethyl)pyrimidine-2-carboxamide] | > 5
< 1 | CC(C)(C)c1cc(NC(=O)N[C@H]2CC[C@@H](Oc3ccc4nnc(C(C)(C)C)n4c3)c3ccccc32)nc(C(=O)NCCN2CCOCC2)n1 [Example 68, 4-(tert-butyl)-6-(3-((1S,4R)-4-((3-(tert-butyl)-[1,2,4]triazolo[4,3-a]pyridin-6-yl)oxy)-1,2,3,4-tetrahydronaphthalen-1-yl)ureido)-N-(2-morpholinoethyl)pyrimidine-2-carboxamide] | 1 to 5
